Laboratory results as given in patent US4127661A, “Piperazine alkanols” (Serdex - Societe d'Etudes, de Recherches, de Diffusion et …, priority 1976, dated 1978).
Structures can show the parent of a compound that is named as a salt.

What was measured:
femoral artery [1] = assay: Vasodilator action in anesthetized dogs (femoral rate of flow, local peripheral resistance), 5 mg/kg i.v.; format: in vivo; settings: 5 mg/kg intravenously
Description: (§1) The tests were conducted with pentobarbital anesthetized dogs (35 mg/kg/i.v.) under artificial respiration with pentobarbital infusion (5 mg/kg/hr).
(§2) The carotid arterial pressure was recorded by means of an electromagnetic capsule connected to the carotid artery. From said determination were calculated the mean blood pressure, the systolic pressure, the diastolic pressure and the pulse pressure.
(§3) The femoral rate of flow was recorded by means of an electromagnetic sensor placed around the femoral artery. Local peripheral resistance was calculated from said parameters.
The compounds of the formula (I) were administered intravenously at a dosage of 5 mg/kg. Two tests were conducted with each compound.

femoral artery [2] = assay: Peripheral action of the compounds of Examples 1, 2 and 4 (femoral rate of flow, local peripheral resistance, blood pressure), 2.5 mg/kg; format: in vivo, dogs; settings: for Femoral rate of flow: increase; for Local peripheral resistance: at 30mn, decrease
Description: as §1, §2, §3

Acute toxicity, oral = settings: rat, in vivo, single administration, fasted male Sprague Dawley rats, after 14 days, p = 0.05, Litchfield and Wilcoxon
Description: Acute toxicity was studied orally in male Sprague Dawley rats kept fasting 24 hours prior to the test, distributed in homogeneous groups of 10 animals each.
The animals were given a single administration of the test materials and were kept under observation during 14 days.
The LD50 were determined after 14 days at a probability threshold of p = 0.05, according to the method of Litchfield and Wilcoxon.

CC(=O)C(c1ccccc1)N1CCN(CCOc2ccccc2)CC1 (stereo not shown) [Example 1, 1-[N-(2-phenoxy-1-ethyl)piperazino]-1-phenylacetone]
assessment among the compounds tested for peripheral vasodilator activity (femoral artery [1]): particularly valuable
Femoral rate of flow (femoral artery [2]; 1 hour): > 25%
Local peripheral resistance (femoral artery [2]): 20%
LD50 at 336 h (Acute toxicity, oral): 800 mg/kg

CC(O)C(c1ccccc1)N1CCN(CCOc2ccccc2)CC1 (stereo not shown) [Example 2, 1-[N-(2-phenoxy-1-ethyl)piperazino]-1-phenyl-2-propanol]
assessment among the compounds tested for peripheral vasodilator activity (femoral artery [1]): particularly valuable
Femoral rate of flow (femoral artery [2]; 30mn): > 15%
Local peripheral resistance (femoral artery [2]): 15%
Femoral rate of flow (femoral artery [2]; on injection (injec.)): > 100%
LD50 at 336 h (Acute toxicity, oral): 250 mg/kg

CCC(O)C(c1ccccc1)N1CCN(CCOc2ccccc2C)CC1 (stereo not shown) [Example 4, 1-(N-[2-(2-methyl-1-phenoxy)-1-ethyl]piperazino)-1-phenyl-2-butanol dihydrochloride]
assessment among the compounds tested for peripheral vasodilator activity (femoral artery [1]): particularly valuable
Femoral rate of flow (femoral artery [2]; 1 hour): > 30%
Local peripheral resistance (femoral artery [2]): 30%
LD50 at 336 h (Acute toxicity, oral): 700 mg/kg
